Data: US7396529B2, “Compositions and methods for regulating receptor clustering” (Mount Sinai Hospital, priority 2001, dated 2008)
“Also recorded” adds a separate entry of the source.

Experiments:
[1] = test system: protein tyrosine phosphorylation in T cells; assay: TCR signaling: phosphotyrosine Western blot after anti-CD3ε bead stimulation; assay type: cell-based, mouse; details: for Protein phosphorylation induced by anti-CD3ε antibody coated beads: Mgat5+/+ T cells, disaccharide 1/3 serial dilution from 2.4 mM, 1 min stimulation
Galectins = details: range; 8; read-out: Dissociation constant for galectin binding; cited from earlier work
[2] = test system: TCR clustering in wild type (Mgat5+/+) T cells; assay: TCR clustering at anti-CD3ε antibody-coated beads after disaccharide pre-incubation; assay type: cell-based, mouse; details: for Enhanced TCR clustering observed (cells with clustering / cells examined): Mgat5+/+ T cells pre-incubated 20 min with 2 mM disaccharide, then anti-CD3ε antibody-coated beads 10 min, stained for TCR; for Effect on TCR clustering at the bead interface: wild type ex vivo T cells, 20 min disaccharide pre-incubation, 10 min anti-CD3ε bead stimulation
Protocol: TCR clustering: Six-micron polystyrene beads (Polysciences) in PBS were coated with hamster anti-mouse CD3ε antibody (Clone 2C11; Cederlane) at 2 μg/ml antibody followed by coating with 200 μg/ml bovine serum albumin (BSA). To measure TCR clustering, 5×10^4 T cells were incubated with 2.5×10^5 anti-CD3ε antibody-coated beads in 100 μl RPMI 1640+10% FCS at 37° C. for 10 minutes placed on poly-L-lysine coated cover slips. The cells were fixed with 10% formalin, stained with 2 μg/ml fluorescein isothiocyanate (FITC) labeled anti-TCRα/β antibody (Pharmigen), solubilized with 0.2% Triton X-100, labelled with rhodamine-phalloidin and Hoechst, and then visualized by deconvolution microscopy. […] To measure TCR internalization, purified splenic T cells stimulated with either 0.1 μg/ml^−1 anti-CD3 antibody or with 10 ng/ml PMA for varying lengths of time were harvested and stained with FITC-anti-TCRα/β. PMA concentrations were not limiting as 10, 50 and 100 ng/ml produced similar internalization and cell activation results. To measure actin reorganization, purified splenic T cells, stimulated with 0.1 μg/ml^−1 anti-CD3 for varying lengths of time, were fixed with 4% paraformaldehyde for 10 minutes, washed with PBS and stained with rhodamine-phalloidin and mean fluorescence intensity (MFI) was determined by FACS.

T cell proliferation = details: depletion of Mgat5 modified glycans; cited from earlier work
EAE = details: injected into mice; cited from earlier work

Compound | Protein phosphorylation induced by anti-CD3ε antibody coated beads [1] | Kd (Galectins) | Enhanced TCR clustering observed (cells with clustering / cells examined) [2] | Effect on TCR clustering at the bead interface [2] | other results
N[C@H]1C(O)O[C@H](CO)[C@@H](O[C@@H]2O[C@H](CO)[C@H](O)[C@H](O)[C@H]2O)[C@@H]1O (stereo partly shown) [Lactosamine] | enhanced protein phosphorylation | ~100 µM |  |  | 
OC[C@H]1O[C@@H](O[C@H]2[C@H](O)[C@@H](O)C(O)O[C@@H]2CO)[C@H](O)[C@@H](O)[C@H]1O (stereo partly shown) [lactose] | enhanced protein phosphorylation | ~100 µM | 9/10 | increased TCR clustering at the bead interface; also recorded: produced a phenocopy of Mgat5^−/− TCR clustering | Signaling in Mgat5−/− T cells ([1]; Mgat5−/− T cells, data not shown): did not enhance signaling
OC[C@H]1O[C@H](O[C@H]2[C@H](O)[C@@H](O)[C@H](O)O[C@@H]2CO)[C@H](O)[C@@H](O)[C@@H]1O [maltose] | no effect |  |  |  | 
OC[C@H]1O[C@@](CO)(O[C@H]2O[C@H](CO)[C@@H](O)[C@H](O)[C@H]2O)[C@@H](O)[C@@H]1O [sucrose] | no effect |  | 1/10 | not altered | 
O[C@H]1[C@H]2[C@H](O)CCCN2C[C@H]1O [swainsonine] |  |  |  |  | Effect on antigen-dependent T cell proliferation (T cell proliferation): potentiates antigen-dependent T cell proliferation
galectin-1: exogenously added beta-galactoside-binding lectin |  |  |  |  | Effect on pathology of EAE (EAE): suppresses the pathology of EAE
